Laboratory results taken from patent US11149046B2, “Antibacterial sideromycins” (Hsiri Therapeutics, Inc., priority 2014, dated 2021).
Converted amounts (≈) assume the structure as drawn. “Also recorded” adds a separate entry of the source. Where two headings read alike, the source gives them in different places.

How the values were obtained:
P. aeruginosa KW799/wt = experiment: MIC determination; format: cell-based, Pseudomonas aeruginosa
Description: (§1) Table 3 that was included in the first Example 4 section provides antibacterial data for the first synthetic sideromycins we prepared and studied. The second Example 4 section elaborated and expanded on that data with inclusion of representative antibacterial data in the text and associated pictures of Petri dish assays. MIC (minimum inhibition concentration) is given in μM and AD (agar diffusion zones of inhibition are given in mm from Kirby-Bauer Petri dish growth inhibition studies).

Pa4 = experiment: MIC determination; format: cell-based, Pseudomonas aeruginosa; settings: Pseudomonas aeruginosa; Table 5
Description: as §1

Pa6 = experiment: MIC determination; format: cell-based, Pseudomonas aeruginosa; settings: Pseudomonas aeruginosa; Table 5; read-out: MIC
Description: (§2) MIC (minimum inhibition concentration) is given in μM and AD (agar diffusion zones of inhibition are given in mm from Kirby-Bauer Petri dish growth inhibition studies).

[1] = tested on: Pa-Da-1304 CF patient isolate; experiment: MIC determination; format: cell-based, Pseudomonas aeruginosa; settings: for MIC: Pseudomonas aeruginosa, Table 5
Description: as §2
We obtained a clinical isolate of Pseudomonas from a cystic fibrosis patient.

A. baumannii ATCC 17961 = experiment: MIC determination; format: cell-based, Acinetobacter baumannii
Description: as §1

[2] = tested on: Pseudomonas aeruginosa 01 (Pa01); experiment: MIC determination; format: cell-based; settings: read-out: MIC
Description: as §1

[3] = tested on: Pseudomonas aeruginosa KW799/wt; experiment: Agar diffusion (Kirby-Bauer) assay; format: cell-based; settings: for zones of inhibition (in words): wild type Pseudomonas, FIG. 8, 9, 12
Description: as §1

[4] = tested on: Acinetobacter baumannii ATCC 17961; experiment: Agar diffusion (Kirby-Bauer) assay, with and without hydrogel; format: cell-based; settings: for zones of inhibition (in words): Acinetobacter, FIG. 8, 9, 10; for AD = agar diffusion inhibition zones: Table 5, head prints A. baumannii only
Description: as §1
We investigated whether the sideromycin absorbed in the gel be able to diffuse out of the gel and into the agar to effect antibacterial growth. As a control, the sideromycin alone, without gel, was added in a separate 9 mm well, as usual.
The second question was whether the sideromycin continue to be released and be able to effect bacterial growth inhibition over extended periods. Thus, additional identical agar plates were prepared and stored at 4° C. for 24, 48 and 72 hours to allow diffusion of the sideromycin (control and gel forms) into the agar before allowing the bacteria to grow in an incubator. Then after each time period, the Petri dishes were incubated at 37° C. for 20 hours to promote bacteria growth in the agar. […] The study has been extended to as long as 168 hours (one week) with retention of antibiotic effectiveness.

E. coli DC0 [5] = experiment: Agar diffusion (Kirby-Bauer) assay; format: cell-based; settings: Table 5
Description: as §1

E. coli DC2 = experiment: Agar diffusion (Kirby-Bauer) assay; format: cell-based; settings: Table 5
Description: as §1

[6] = tested on: Pseudomonas aeruginosa KW799/61; format: cell-based; settings: for AD = agar diffusion inhibition zones: Table 5
Description: as §2

[7] = tested on: P. aeruginosa KW799/61 (permeability mutant); experiment: microbe, parasite or virus in culture; format: cell-based, Pseudomonas aeruginosa; settings: Pseudomonas aeruginosa
Description: as §2

E. coli DC0 [8] = experiment: MIC determination; format: cell-based; settings: Escherichia coli, DC0; Table 5; read-out: MIC
Description: as §1

[9] = tested on: E. coli DC2 (permeability mutant); experiment: MIC determination; format: cell-based; settings: Escherichia coli
Description: as §1

[10] = tested on: strains of Pseudomonas and Acinetobacter; experiment: Antibacterial activity, general statements; format: cell-based; settings: general statements of the text
Experimental: Antibiotic activity was determined using agar diffusion assays against representative Gram-negative bacteria, including Pseudomonas aeruginosa (Pa6), and several multidrug resistant forms of Acinetobacter baumannii. Representative results are shown in Table 1 and a corresponding picture of an actual petri dish showing the agar diffusion results (FIG. 4). […].

Acinetobacter = experiment: Murine Survival Experiment with Acinetobacter; format: in vivo; settings: 50 mg/kg IV at +30 min and +4 hr
Experimental: In vivo data for murine survival with Acinetobacter is shown in Table 9 below and graphically in FIG. 14. In the experiments, 10^8 Acinetobacter was administered IP at time 0 on Day 1, and antibiotic was administered twice IV at +30 min and +4 hr

[11] = Animal tolerability study (NOAEL) in healthy mice; format: in vivo; settings: 24 hour study
Experimental: With the easily formulated sideromycin in hand, we profiled sideromycin safety in healthy mice. Thus, sideromycin YML-I-115 was tested in healthy mice to determine its No-observed-adverse-effect level (NOAEL). We dosed the mice with YML-I-115 (the sodium salt) at 1 mg/kg, 20 mg/kg, 50 mg/kg, and 100 mg/kg through IV injection of the compound. […] Higher dosage animal experiments have been scheduled to determine the upper limit of the NOAEL value.

[12] = Pseudomonas aeruginosa, KW799/WT, Table 5, read-out: MIC
[13] = Acinetobacter baumannii, ATCC17961, Table 5, head prints A. baumannii only, read-out: MIC
[14] = Acinetobacter baumannii, ATCC17961, Table 7, read-out: MIC
[15] = Pseudomonas aeruginosa, Table 5

CC1(C)S[C@@H]2[C@H](NC(=O)[C@H](N)c3ccccc3)C(=O)N2[C@H]1C(=O)O [ampicillin, reference compound] gave an MIC (P. aeruginosa KW799/wt; [12]) of 200 µM (≈ 69.9 µg/mL), an MIC (P. aeruginosa KW799/wt; Pseudomonas aeruginosa, KW799/WT, iron deficient media, read-out: MIC in Fe(−)MHII Media) of 250 µM (≈ 87.4 µg/mL) and an MIC (Pa4) greater than 200 µM. The MIC (Pa6) was greater than 200 µM, the MIC [1] was greater than 200 µM and the “susceptibility of the clinical isolate (in words)” value ([1]; preliminary tests) was “resistant”. It also gave an MIC (A. baumannii ATCC 17961; [13]) greater than 200 µM, an MIC (A. baumannii ATCC 17961; [14]) greater than 200 µM and an MIC (A. baumannii ATCC 17961; Acinetobacter baumannii, ATCC17961, iron deficient media, read-out: MIC in Fe(−)MHII Media) of 250 µM (≈ 87.4 µg/mL). The MIC (A. baumannii ATCC 17961; Acinetobacter baumannii, ATCC17961, text, read-out: MIC) was greater than 250 µM, the MIC ([2]; Pseudomonas aeruginosa, Table 7) was greater than 200 µM and the MIC [2, 15] was greater than 200 µM. For the same compound, the “zones of inhibition (in words)” value [3] was “inactive” and the “zones of inhibition (in words)” value [4] was “inactive”.

In the case of CC(=O)Oc1cccc(C(=O)NCCCCN(CC(=O)N[C@H](C(=O)N[C@@H]2C(=O)N3C(C(=O)O)=C(Cl)CC[C@H]23)c2ccccc2)C(=O)c2cccc(OC(C)=O)c2OC(C)=O)c1OC(C)=O [YML-1-45cr], the “AD = agar diffusion inhibition zones” value (E. coli DC0 [5]) is reported as “(AD = 31) mm”, the “AD = agar diffusion inhibition zones” value (E. coli DC2) is reported as “(AD = 38) mm” and the “AD = agar diffusion inhibition zones” value ([3]; Table 5) is reported as “(AD = 18) mm”. The “zones of inhibition (in words)” value [3] was “sizable zone of inhibition; also recorded: impressive zones of inhibition; also recorded: significant activity”, the “AD = agar diffusion inhibition zones” value [6] was “(AD = 23) mm” and the “zones of inhibition (in words)” value ([6]; outer membrane permeable mutant, FIG. 9 center panel) was “significant activity”. For the same compound, the “zones of inhibition (in words)” value [4] was “zones comparable to or even larger than our first sideromycin, 21; also recorded: impressive zones of inhibition” and the “AD = agar diffusion inhibition zones” value [4] was “(AD = 18) mm”.

In the case of CC(=O)Oc1cccc(C(=O)N(CCCCNC(=O)c2cccc(OC(C)=O)c2OC(C)=O)CC(=O)N[C@H](C(=O)N[C@@H]2C(=O)N3C(C(=O)O)=C(Cl)CC[C@H]23)c2ccccc2)c1O [YML-I-57], the MIC (P. aeruginosa KW799/wt; [12]) is reported as 0.025 µM (≈ 0.0219 µg/mL), the MIC (Pa4) is reported as 12 µM (≈ 10.5 µg/mL) and the MIC [7] is reported as 0.125 µM (≈ 0.11 µg/mL). For the same compound, the MIC (Pa6) was 1.56 µM (≈ 1.37 µg/mL), the MIC [1] was greater than 100 µM and the MIC (A. baumannii ATCC 17961; [13]) was 0.02 to 0.0625 µM (≈ 0.0175 to 0.0548 µg/mL). The MIC (E. coli DC0 [8]) was 0.006 µM (≈ 0.00526 µg/mL), the MIC [9] was 0.006 µM (≈ 0.00526 µg/mL) and the MIC [2, 15] was 0.78 µM (≈ 0.683 µg/mL). For the same compound, the “antibacterial activity (in words)” value [10] was “comparable to the fully acetylated version, YML-1-45”.

O=C(CN(CCCCNC(=O)c1cccc(O)c1O)C(=O)c1cccc(O)c1O)NC(C(=O)NC1C(=O)N2C(C(=O)O)=C(Cl)CSC12)c1ccccc1 (stereo not drawn) [YML-1-109] gave an MIC (P. aeruginosa KW799/wt; Table 7, read-out: MIC) of 0.05 µM (≈ 0.0384 µg/mL), an MIC (A. baumannii ATCC 17961; Table 7, read-out: MIC) of 0.05 µM (≈ 0.0384 µg/mL) and an MIC ([2]; Table 7) of 1.56 µM (≈ 1.2 µg/mL). The “antibacterial activity (in words)” value [10] was “comparable to the loracarbef conjugate YML-1-91”.

With O=C(CN(CCCCNC(=O)c1cccc(O)c1O)C(=O)c1cccc(O)c1O)N[C@H](C(=O)N[C@@H]1C(=O)N2C(C(=O)O)=C(Cl)CC[C@H]12)c1ccccc1 [YML-I-60] the MIC (P. aeruginosa KW799/wt; [12]) was 0.025 µM (≈ 0.0188 µg/mL), the MIC (Pa4) was 12 µM (≈ 9 µg/mL) and the MIC (Pa6) was 6 µM (≈ 4.5 µg/mL). For the same compound, the MIC [1] was greater than 100 µM, the MIC (A. baumannii ATCC 17961; [13]) was 0.03 to 0.06 µM (≈ 0.0225 to 0.045 µg/mL) and the MIC (A. baumannii ATCC 17961; [14]) was 0.1 µM (≈ 0.075 µg/mL). For the same compound, the MIC [2, 15] was 1.5 µM (≈ 1.13 µg/mL) and the “growth inhibition with hydrogel / multi-day diffusion (in words)” value ([4]; plates stored at 4° C. for 24, 48 and 72 hours, then 37° C., or gel streaked on inoculated dish) was “zones of inhibition increased dramatically after each day”.

For CC(C)(C)OC(=O)NCCCCCN(O)C(=O)CCC(=O)N[C@@H](C(=O)N[C@@H]1C(=O)N2C1SC(C)(C)[C@@H]2C(=O)O)c1ccccc1 (stereo partly drawn) [YML-I-27], the “AD = agar diffusion inhibition zones” value (E. coli DC0 [5]) was “(AD = 0) mm”, the “AD = agar diffusion inhibition zones” value (E. coli DC2) was “(AD = 26) mm” and the “AD = agar diffusion inhibition zones” value [6] was “(AD = 24) (AD = 24) mm”. For the same compound, the “AD = agar diffusion inhibition zones” value [4] was “(AD = 17) mm”.

For O=C(CN(CCCCNC(=O)c1cccc(O)c1O)C(=O)c1cccc(O)c1O)NC(C(=O)NC1C(=O)N2C(C(=O)[O-])=C(Cl)CCC12)c1ccccc1.[Na+] (stereo not drawn) [YML-I-115], the “murine survival (surviving mice)” value (Acinetobacter; D 1, 10^8 Acinetobacter IP) was 6, the “murine survival (surviving mice)” value (Acinetobacter; D 2) was 6 and the “murine survival (surviving mice)” value (Acinetobacter; D 3) was 6. For the same compound, the “murine survival (surviving mice)” value (Acinetobacter; D 4) was 6, the “murine survival (surviving mice)” value (Acinetobacter; D 5) was 6 and the “murine survival (surviving mice)” value (Acinetobacter; D 6) was 6. For the same compound, the “murine survival (surviving mice)” value (Acinetobacter; D 7) was 6, the “survival and behavior (in words)” value ([11]; 1, 20, 50 and 100 mg/kg IV) was “All the mice survived and none of the mice experienced abnormal behavior” and the “No-observed-adverse-effect level (NOAEL)” value ([11]; healthy mice, IV injection) was 100 mg/kg.
